According to patent US7094760B2, “Peptides for treatment of inflammation and shock” (Salpep Biotechnology, Inc., priority 1996, dated 2006):
Ends that are not written are not given here.

Columns and labels:
[1] = tested on: isolated jejunal segments from egg albumin-sensitised rats; assay: antigen-induced contraction of isolated jejunal segments, Examples 3 and 6; parameters: species or system rat; key to Biological Activity = inhibition of antigen-induced jejunal contraction by test peptide: +++ = highest inhibition (~60%); ++ = moderate inhibition (~40%); + = lowest inhibition (~20%); − = no inhibition
Procedure: SGP-T, at doses as low as 6.8×10^−7M, reduced antigen induced contractions of these isolated intestinal tissues by 60% (data not shown).
Analogues and fragments of SGP-T were tested for their ability to inhibit antigen (egg albumin)-induced intestinal contractions, using isolated jejunal segments from egg albumin-sensitised rats, as described in Example 3.

[2] = tested on: jejunal segments from ovalbumin-sensitized rats; assay: antigen-induced jejunal segment contraction, URE/OA ratio, Example 7; parameters: species or system rat; conditions: 10 μg peptide; for URE/OA: 100 ng OA, 20 μg urecholine
Procedure: Animals and Tissue Preparation: Male Sprague-Dawley rats were sensitized to egg albumin (ovalbumin, OA) with 50 ng of Pertussis bordetella toxin as an adjuvant. Four to six weeks after sensitization, the rats were anaethetised with sodium pentobarbital and the jejunum was removed. Two cm sections of the jejunum were mounted in tissue baths under 0.75 g of isometric tension, and the tissues were allowed to equilibrate for 20 min prior to beginning the experiment.
10 μg of SGP-T or one of its analogues or fragments was added to a bath, while control tissues received the saline vehicle. Following a 10 min incubation, 100 ng of OA prepared in 0.9% saline was added. After the tissue had reached a maximal contractile response, the tissues were washed extensively to remove OA and peptide and, after the tissues had established baseline tension, 20 μg of urecholine (URE; a cholinergic-muscarinic receptor agonist) was added to determine the maximal contractile response of the tissue. The tissues were then removed from the bath, cleared of all underlying mucosa and the weight of the remaining muscle was determined.
Data Analysis: The tension (measured in grams) per gram tissue weight generated by each tissue in response to OA and URE was calculated. To normalize for differences in the ability of each tissue segment to contract in response to the muscle stimulants, the contractile response to […]. Thus, a measure of the antigen-induced contraction was expressed as the URE/OA ratio.
The data was analyzed using the one-way analysis of variance (ANOVA) and differences between groups was determined using the Student t-test for unpaired samples. The results are shown in FIGS. 7 and 8 and Tables 3 and 4.

[3] = tested on: LPS (Salmonella typhosa)-induced hypotension in sialadenectomized rats; assay: endotoxin (LPS)-induced hypotension, sialadenectomized rats; format: in vivo, rat
Procedure: (§1) The animal model of endotoxic shock used involves intravenous injection of endotoxin (3.5 mg/kg of lipopolysaccharide (LPS) from Salmonella typhosa) into pentobarbital-anaesthetized Sprague-Dawley rats, to produce a fall in mean arterial blood pressure within 3 to 5 minutes. The endotoxin was injected slowly over 1 min. via the jugular vein, and mean arterial blood pressure in mm mercury (MABP) was monitored continuously for 60 min, with the average blood pressure being calculated at 15, 30, 45 and 60 min. Studies were performed on unoperated rats and rats with their submandibular glands removed (sialadenectomized).
(§2) The results shown in Table 1 are the averages of three different experiments using the protocol defined above. The data shown represent the average decrease in MABP (dec MABP) and the % Decrease in MABP over the 60 minutes following LPS administration. SGP-S (100μg/kg) and SGP-T (100 μg/kg) were administered 90 min. before LPS. […] Neither SGP-T nor SGP-S, when given prior to the LPS challenge, had appreciable effects on MABP.
(§3) The dose-response relationship of the inhibitory effect of SGP-T and SGP-S on endotoxin-induced hypotension was also examined and the results are shown in FIG. 1.

[4] = tested on: LPS (Salmonella typhosa)-induced hypotension in unoperated rats; assay: endotoxin (LPS)-induced hypotension, unoperated rats; format: in vivo, rat
Procedure: as §1, §2
Overall, SGP-T reduced by 60% the decrease and the percent decrease in MABP induced by endotoxin, relative to pre-LPS values. SGP-S, on the other hand, had no effect on the shock induced by endotoxin in unoperated rats.
as §3

[5] = peptide 100 μg/kg 90 min before LPS 3.5 mg/kg iv

Row | Substance | Biological Activity = inhibition of antigen-induced jejunal contraction by test peptide [1] | URE/OA ([2]; Table 3, saline 4.0 ± 0.4) | anti-anaphylactic activity in jejunal assay, in words [2] | further results
1 | ADIFEGG [T3, alanine analogue of SGP-T] | − | 3.6 ± 0.9 |  | 
2 | FE-Citrulline |  |  | loss of biological activity | URE/OA ([2]; Table 4, saline 5.7 ± 1.0): 5.0 ± 1.1
3 | FE-Proline |  |  | loss of biological activity | URE/OA ([2]; Table 4, saline 5.7 ± 1.0): 6.2 ± 1.3
4 | FE-Sarcosine |  |  |  | URE/OA ([2]; Table 4, saline 5.7 ± 1.0): 10.0 ± 1.6
5 | FEG | ++ (++ = moderate inhibition (~40%)) |  |  | 
6 | FEGGG [T6] | ++ (++ = moderate inhibition (~40%)) | 10.7 ± 2.0 | no effect on activity | 
7 | NH2-Ser-Gly-Glu-Gly-Val-Arg-COOH (H-SGEGVR-OH) [SGP-S, submandibular gland peptide S, SGEGVR] |  |  |  | effect on drop in MABP after LPS [3]: significantly reduced the drop in MABP; % Dec = percent decrease in MABP relative to MABPbef [3, 5]: −32.3 ± 3.9 %; MABPaft = average MABP for 60 mins after LPS injection [3, 5]: 81.6 ± 5.8 mm Hg; dec MABP = decrease in MABP after LPS relative to MABPbef [3, 5]: −37.6 ± 4.4 mm Hg; effect on drop in MABP / shock induced by endotoxin [4]: no effect; % Dec = percent decrease in MABP relative to MABPbef [4, 5]: −22.9 ± 1.3%; MABPaft = average MABP for 60 mins after LPS injection [4, 5]: 95.2 ± 4.3 mm Hg; dec MABP = decrease in MABP after LPS relative to MABPbef [4, 5]: −28.1 ± 1.8 mm Hg
8 | STDIFEGG [T2, analogue of SGP-T] | − | 3.58 ± 1.07 |  | 
9 | TAIFEGG [T7, alanine analogue of SGP-T] | +++ (+++ = highest inhibition (~60%)) | 12.3 ± 2.2 | minimal effect on prevention of anaphylaxis | 
10 | TDAFEGG [T10, alanine analogue of SGP-T] | + (+ = lowest inhibition (~20%)) | 8.3 ± 1.9 | minimal effect on prevention of anaphylaxis | 
11 | TDIAEGG [T11, alanine analogue of SGP-T] | − | 5.2 ± 1.2 |  | 
12 | TDIFAGG [T9, alanine analogue of SGP-T] | − | 7.2 ± 1.1 |  | 
13 | TDIFE [T4] | − | 1.7 ± 0.3 | abolished anti-anaphylactic activity | 
14 | TDIFEGG-NH2 [T5, SGP-T with amidated terminal glycine] | − | 4.3 ± 0.7 | abolished anti-anaphylactic activity | 
